Test results taken from patent publication US20250204515A1, “Heparanase Inhibition for Graft Protection” (University of Pittsburgh - Of the Commonwealth System of …, priority 2022, published 2025).
Entries after “also recorded” stand apart in the source; their conditions may differ.

Legend:
[1] = test system: endothelial glycocalyx (eGC); experiment: Gross inspection and TEM glycocalyx imaging of rat lungs after 1 h warm ischemia; type: in vivo; conditions: for gross visual appearance of excised lungs: heparin 300 IU or NAH 300 μg i.v. before 1 h ischemia; for eGC ultrastructure in lung vasculature (TEM): heparin 300 IU or NAH 300 μg i.v. before 1 h warm ischemia, vs control
Method: Models of lungs with damaged or preserved eGC and rat orthotopic left lung transplantation. Rats were sedated with 4% isoflurane via inhalation for tracheostomy and then placed on a ventilator. They received 5% isoflurane with 100% O2 via inhalation through the ventilator for 15 min to induce a deep state of anesthesia that causes arrest of spontaneous breathing. The rats were disconnected from the ventilator 5 min after intravenous administration of heparin (300 IU), a heparin derivative without anti-coagulant properties (300 μg; N-acetyl heparin (NAH) (Millipore Sigma, Burlington, MA)), or saline (300 μl, control) through the jugular vein. Cardiac activity and blood oxygen saturation were monitored after disconnection from ventilator until cardiac arrest. One hour after induction of ischemia, a median thoracotomy was performed, and blood was flushed from the lungs with cold, low potassium dextran solution (PERFADEX; XVIVO Perfusion AB) through the pulmonary artery. Then, the heart-lung bloc was isolated and stored in cold PERFADEX for 6 h before transplantation.
TEM for glycocalyx imaging. To prepare the tissue for transmission electron microscopy imaging, blood was flushed from rat lungs with PBS via the pulmonary artery after 1 h of warm ischemia, then the lungs were perfused with a solution containing 2% glutaraldehyde, 2% sucrose, 0.1 M sodium cacodylate buffer (pH 7.3, Sigma), and 2% lanthanum nitrate (Sigma). Excised lung tissues were incubated with the same solution for 2 h at 4° C. for fixation. The fixed tissues were immersed in a 2% sucrose, 0.1 M sodium cacodylate buffer (pH 7.3) solution with 2% lanthanum nitrate overnight at 4° C. to stain the glycocalyx, then washed twice with an alkaline solution (0.03 mol/l NaOH) containing 2% sucrose. Following fixation and glycocalyx staining with lanthanum nitrate, the specimens were rinsed in PBS, post-fixed in 1% osmium tetroxide (Electron Microscopy Sciences, Hatfield, PA), rinsed in PBS a second time, dehydrated through a graded series of ethanol and propylene oxide (Electron Microscopy Sciences), and embedded using a Poly/Bed 812 (Luft formulations) Embedding Kit (Polysciences, Warrington, PA). Sections were cut on a Leica-Reichart Ultracut ultra-microtome (Leica Microsystems, Buffalo Grove, IL). Semi-thin (300 nm) sections were stained with 0.5% toluidine blue in 1% sodium borate (toluidine blue O and sodium borate, Fisher Scientific, Pittsburgh, PA) and examined under the light microscope. Ultrathin sections (65 nm) were stained with uranyl acetate and Reynold's lead citrate and examined on a JEOL 1400 transmission electron microscope (JEOL Peabody, MA) with a side-mount AMT 2 k digital camera (Advanced Microscopy Techniques, Danvers, MA).

MMP-2 = experiment: Gelatin zymography of EVLP perfusate, donor-pretreated lungs; type: in vivo, rat; conditions: donor pre-treatment, vs control
Method: Gelatin zymography. Gelatin zymography was performed to measure secreted MMP-2 and MMP-9 activity in EVLP perfusate and to measure endogenous MMP-2 and 9 activity in lung tissue before transplantation. Briefly, lung tissue before transplant was homogenized in cold PBS. Perfusate samples (20 μl) or tissue lysates were mixed with 2× non-reducing SDS sample buffer were loaded onto a 10% polyacrylamide gel containing 0.1% SDS and 0.1% gelatin. After electrophoresis to separate the proteins, the gel was washed in renaturing buffer (Novex Invitrogen) at room temperature, and then incubated in developing buffer (Novex Invitrogen) at 37° C. overnight (˜16-18 h). The next day, the gel was stained with Coomassie Brilliant Blue R-250 (Bio-Rad) and imaged (ChemiDoc, Bio-Rad). Enzyme activity, visualized as clear bands against the dark blue background, was quantified using Image-J (NIH).

[2] = test system: syndecan-1, glycosaminoglycans (GAGs); experiment: Glycocalyx components in lung grafts 2 h after transplantation (western blot, DMMB); type: in vivo, rat; conditions: vs control; for GAGs remaining in the lung tissue: DMMB assay, 2 h after transplant; for syndecan-1 protein expression in the plasma membrane: western blot, 2 h after transplantation
Method: Western blotting. Whole cell lysate was isolated with 2% SDS buffer (2% SDS, 50 mM Tris-HCl pH 6.8, 10% glycerol) supplemented with protease inhibitors (Sigma-Aldrich). Membrane protein fractions were obtained with the Mem-PER Plus Membrane Protein Extraction Kit (Thermo Scientific) following manufacturer's instructions. Proteins were resolved on 10% SDS-PAGE followed by transfer to 0.2 μm nitrocellulose membranes (Bio-Rad Laboratories, Hercules, CA, USA). Membranes were blocked with 5% non-fat milk at room temperature for 2 h and then incubated with the following primary antibodies at 4° C. overnight: anti-syndecan-1 (1:1000; Santa Cruz Biotechnology, Inc., Dallas, Tx, USA), anti-heparanase-1 (1:1000; Boster Biological, Pleasanton, CA, USA), anti-VE-Cadherin (1:1000; Abcam), anti-HSP90 (1:1000; Abcam) and anti-@-actin (1:50,000; Sigma-Aldrich). Membranes were then incubated with either anti-mouse (1:5000) or anti-rabbit (1:3000) horse-radish peroxidase (HRP)-conjugated polyclonal secondary antibody (Abcam, Cambridge, MA, USA), or IRDye 800CW anti-rabbit IgG or 680CW anti-mice secondary antibody (LI-COR Biosciences, Lincoln, NE, USA) at room temperature for 2 h. Proteins were visualized using an enhanced chemiluminescence kit (Abcam), and protein bands were imaged and analyzed using Image Lab software (Version 6.0; Bio-Rad Laboratories, Inc.) or Odyssey 9120 Infrared Imaging System (LI-COR Biosciences).
Determination of glycocalyx components in rat lung grafts. For rat lung tissue, syndecan-1 released into the perfusate during EVLP was measured with a rat-specific ELISA (Immunotag Rat SDC1 (Syndecan-1) ELISA, G-Biosciences, St. Louis, MO). Glycocalyx glycosaminoglycans (GAGs) were quantitated using the 1,9-dimethylmethylene blue (DMMB, Millipore Sigma) method with modifications. A 1 L solution of DMMB (pH˜3.0) was prepared by dissolving 16 mg DMMB in distilled H2O containing 3.04 g/A glycine, 1.6 g/A NaCl and 95 ml 0.1 M acetic acid. Briefly, 1 ml DMMB solution was added to 20 μl lung tissue lysate then incubated at room temperature for 1 h on a tube rotator. The tubes were then centrifuged at 14,000 rpm for 15 min at 4° C. Supernatants were carefully decanted, 200 μL sodium lauryl sulfate buffer (2.08 mM) was added to each pellet, and the tubes were vortexed until GAG-DMMB pellets were no longer visible. GAG content in each sample was measured spectrophotometrically at 656 nm.

Substance	gross visual appearance of excised lungs [1]	eGC ultrastructure in lung vasculature (TEM) [1]	MMP-2 activity in EVLP perfusate (MMP-2)	GAGs remaining in the lung tissue [2]	syndecan-1 protein expression in the plasma membrane [2]
heparin	no significant changes in appearance	preserved; also recorded: intact and adherent to the cell surface	significantly less	significantly more GAGs remained	markedly higher
N-acetyl heparin [NAH]	no significant changes in appearance	intact and adherent to the cell surface	significantly less	significantly more GAGs remained	markedly higher
